In patent publication US20190010158A1, “ANTITUMOR EFFECT POTENTIATOR COMPRISING PYRROLOPYRIMIDINE COMPOUND” (TAIHO PHARMACEUTICAL CO., LTD, priority 2015, published 2019):
“And” between values parts separate entries of the source, which are not always exact repeats. Equal entries are not always repeated. Where two headings read alike, the source gives them in different places.

Assays:
[1] = test system: tumor cell lines shown in Table 24; experiment: Example 2: combined use with tyrosine kinase inhibitor, cell growth inhibition test (IC50 ratio, CI); format: cell-based; settings: for Comprehensive Evaluation: combined use with Reference Example Compound 55
[2] = test system: human acute T lymphoblastic leukemia CCRF-CEM cell lines; experiment: Cell growth inhibition 1 (CellTiter-Glo); format: cell-based; settings: culture with test compound 72 hours
[3] = SNU-16, Reference Example Compound 55:other compound 1:3.3, at ED50
[4] = SNU-16, Reference Example Compound 55:other compound 1:10, at ED50

Question: Which CI [1] does the source give for `N#CC[C@H](C1CCCC1)n1cc(-c2ncnc3[nH]ccc23)cn1` [Ruxolitinib, ruxolitinib] here?
Answer: 0.82

Question: `CCSc1cccc(F)c1C#Cc1cn([C@@H]2O[C@H](CNS(N)(=O)=O)[C@@H](O)[C@H]2O)c2ncnc(N)c12` [Reference Example 66, 4-Amino-7-[(2R,3R,4S,5R)-3,4-dihydroxy-5-[(sulfamoylamino)methyl]tetrahydrofuran-2-yl]-5-[2-(2-ethylsulfanyl-6-fluoro-phenyl)ethynyl]pyrrolo[2,3-d]pyrimidine] was tested. Which IC50 [2] did it give?
Answer: 4.3 nM

Question: With `C#Cc1cccc(Nc2ncnc3cc(OCCOC)c(OCCOC)cc23)c1` [Erlotinib, erlotinib] as the molecule, how does the CI [1] read?
Answer: 0.45

Question: What about the CI ([1]; A549, Reference Example Compound 55:other compound 1:10, at ED50) of the same molecule?
Answer: 0.54

Question: And the “Comprehensive Evaluation” value ([1]; A549)?
Answer: Synergism (0.3-0.7)

Question: For `Nc1ncnc2c1c(C#Cc1c(F)cc(N3CCSCC3)cc1F)cn2[C@@H]1O[C@H](CNS(N)(=O)=O)[C@@H](O)[C@H]1O` [Reference Example 37, 4-[4-[2-[4-Amino-7-[(2R,3R,4S,5R)-3,4-dihydroxy-5-[(sulfamoylamino)methyl]tetrahydrofuran-2-yl]pyrrolo[2,3-d]pyrimidin-5-yl]ethynyl]-3,5-difluoro-phenyl]thiomorpholine], which IC50 [2] is on record?
Answer: 6 nM

Question: With `Cc1ccc(NC(=O)c2ccc(CN3CCN(C)CC3)cc2)cc1Nc1nc(-c2cccnc2)cs1` [Masitinib, masitinib] as the molecule, how does the CI ([1]; MOLT-4, Reference Example Compound 55:other compound 1:33, at ED50) read?
Answer: 0.31

Question: What about the CI ([1]; MOLT-4, Reference Example Compound 55:other compound 1:100, at ED50) of the same molecule?
Answer: 0.20

Question: What about the “Comprehensive Evaluation” value ([1]; MOLT-4) of the same molecule?
Answer: Synergism (0.3-0.7)

Question: For `Nc1ncnc2c1c(C#Cc1c(F)cc(NCCO)cc1F)cn2[C@@H]1O[C@H](CNS(N)(=O)=O)[C@@H](O)[C@H]1O` [Reference Example 32, 4-Amino-5-[2-[2,6-difluoro-4-(2-hydroxyethylamino)phenyl]ethynyl]-7-[(2R,3R,4S,5R)-3,4-dihydroxy-5-[(sulfamoylamino)methyl]tetrahydrofuran-2-yl]pyrrolo[2,3-d]pyrimidine], which IC50 [2] is on record?
Answer: 2500 nM

Question: How did the CI ([1]; SNU-16, Reference Example Compound 55:other compound 1:30, at ED50) turn out when `Cc1ccc(Nc2nccc(N(C)c3ccc4c(C)n(C)nc4c3)n2)cc1S(N)(=O)=O` [Pazopanib, pazopanib] was run?
Answer: 0.71

Question: And the CI ([1]; SNU-16, Reference Example Compound 55:other compound 1:90, at ED50)?
Answer: 0.52

Question: How did the IC50 [2] turn out when `Nc1ncnc2c1c(C#Cc1c(F)cc(N3CC[C@@H](O)C3)cc1F)cn2[C@@H]1C[C@H](CNS(N)(=O)=O)[C@@H](O)[C@H]1O` [Reference Example 120, 4-Amino-5-[2-[2,6-difluoro-4-[(3R)-3-hydroxypyrrolidin-1-yl]phenyl]ethynyl]-7-[(1R,2S,3R,4R)-2,3-dihydroxy-4-[(sulfamoylamino)methyl]cyclopentyl]pyrrolo[2,3-d]pyrimidine] was run?
Answer: 35 nM

Question: `Nc1ncnc2c1c(C#Cc1c(F)cccc1S(N)(=O)=O)cn2[C@@H]1O[C@H](CNS(N)(=O)=O)[C@@H](O)[C@H]1O` [Reference Example 84, 2-[2-[4-Amino-7-[(2R,3R,4S,5R)-3,4-dihydroxy-5-[(sulfamoylamino)methyl]tetrahydrofuran-2-yl]pyrrolo[2,3-d]pyrimidin-5-yl]ethynyl]-3-fluoro-benzenesulfonamide] was tested. Which IC50 [2] did it give?
Answer: 230 nM

Question: `CC1(COc2ccc3c(c2)ncn3-c2ccc3cccc(N4CCC(N)CC4)c3n2)COC1` [Crenolanib, crenolanib] was tested. Which CI ([1]; MV4-11, Reference Example Compound 55:other compound 1:3.7, at ED50) did it give?
Answer: 0.91

Question: What about the CI ([1]; MV4-11, Reference Example Compound 55:other compound 1:11, at ED50) of the same molecule?
Answer: 0.83

Question: And the “Comprehensive Evaluation” value ([1]; MV4-11)?
Answer: Additive (0.9-1.10)

Question: How did the IC50 [2] turn out when `Nc1ncnc2c1c(C#CCc1c(F)cccc1F)cn2[C@@H]1O[C@H](CNS(N)(=O)=O)[C@@H](O)[C@H]1O` [Reference Example 31, 4-Amino-5-[3-(2,6-difluorophenyl)prop-1-ynyl]-7-[(2R,3R,4S,5R)-3,4-dihydroxy-5-[(sulfamoylamino)methyl]tetrahydrofuran-2-yl]pyrrolo[2,3-d]pyrimidine] was run?
Answer: 600 nM

Question: For `Nc1ncnc2c1c(C#CCc1ccccc1F)cn2[C@@H]1O[C@H](CNS(N)(=O)=O)[C@@H](O)[C@H]1O` [Reference Example 36, 4-Amino-7-[(2R,3R,4S,5R)-3,4-dihydroxy-5-[(sulfamoylamino)methyl]tetrahydrofuran-2-yl]-5-[3-(2-fluorophenyl)prop-1-ynyl]pyrrolo[2,3-d]pyrimidine], which IC50 [2] is on record?
Answer: 250 nM

Question: Which CI ([1]; MOLT-4, Reference Example Compound 55:other compound 1:111, at ED50) does the source give for `CC(C)(C)c1cc(NC(=O)Nc2ccc(-c3cn4c(n3)sc3cc(OCCN5CCOCC5)ccc34)cc2)no1` [Quizartinib, quizartinib] here?
Answer: 0.39

Question: What about the CI ([1]; MOLT-4, Reference Example Compound 55:other compound 1:333, at ED50) of the same molecule?
Answer: 0.44

Question: And the “Comprehensive Evaluation” value ([1]; MOLT-4)?
Answer: Synergism (0.3-0.7)

Question: Which IC50 [2] does the source give for `N#Cc1cccc(F)c1C#Cc1cn([C@@H]2O[C@H](CNS(N)(=O)=O)[C@@H](O)[C@H]2O)c2ncnc(N)c12` [Reference Example 85, 4-Amino-5-[2-(2-cyano-6-fluoro-phenyl)ethynyl]-7-[(2R,3R,4S,5R)-3,4-dihydroxy-5-[(sulfamoylamino)methyl]tetrahydrofuran-2-yl]pyrrolo[2,3-d]pyrimidine] here?
Answer: 38 nM

Question: For `CS(=O)(=O)CCNCc1ccc(-c2ccc3ncnc(Nc4ccc(OCc5cccc(F)c5)c(Cl)c4)c3c2)o1` [Lapatinib, lapatinib], which CI ([1]; A431, Reference Example Compound 55:other compound 1:10, at ED50) is on record?
Answer: 0.15

Question: And the CI ([1]; A431, Reference Example Compound 55:other compound 1:30, at ED50)?
Answer: 0.19

Question: What about the “Comprehensive Evaluation” value ([1]; A431) of the same molecule?
Answer: Strong

Question: Which results are given for `COc1cc2nccc(Oc3ccc(NC(=O)NC4CC4)c(Cl)c3)c2cc1C(N)=O` [Lenvatinib, lenvatinib]?
Answer: CI [1, 3]: 0.44; CI [1, 4]: 0.63; Comprehensive Evaluation ([1]; SNU-16): Synergism (0.3-0.7)

Question: How did the CI [1] turn out when `Cc1ccc(C(=O)Nc2ccc(CN3CCN(C)CC3)c(C(F)(F)F)c2)cc1C#Cc1cnc2cccnn12` [Ponatinib, ponatinib] was run?
Answer: 0.46 and 0.36

Question: How did the CI ([1]; SNU-16, Reference Example Compound 55:other compound 1:15, at ED50) turn out when `CNC(=O)c1cc(Oc2ccc(NC(=O)Nc3ccc(Cl)c(C(F)(F)F)c3)c(F)c2)ccn1` [Regorafenib, regorafenib] was run?
Answer: 0.88

Question: And the CI ([1]; SNU-16, Reference Example Compound 55:other compound 1:45, at ED50)?
Answer: 1.06

Question: What about the “Comprehensive Evaluation” value ([1]; SNU-16) of the same molecule?
Answer: Additive (0.9-1.10)

Question: `CN(C)C/C=C/C(=O)Nc1cc2c(Nc3ccc(F)c(Cl)c3)ncnc2cc1O[C@H]1CCOC1` [Afatinib, afatinib] was tested. Which CI ([1]; A549, Reference Example Compound 55:other compound 1:1.7, at ED50) did it give?
Answer: 0.70

Question: And the CI ([1]; A549, Reference Example Compound 55:other compound 1:5, at ED50)?
Answer: 0.48

Question: What about the “Comprehensive Evaluation” value ([1]; A549) of the same molecule?
Answer: Synergism (0.3-0.7)

Question: How did the CI [1, 3] turn out when `CCN(CC)CCNC(=O)c1c(C)[nH]c(/C=C2\C(=O)Nc3ccc(F)cc32)c1C` [Sunitinib, sunitinib] was run?
Answer: 0.86

Question: What about the CI [1, 4] of the same molecule?
Answer: 0.91

Question: And the “Comprehensive Evaluation” value ([1]; SNU-16)?
Answer: Additive (0.9-1.10)

Question: How did the CI ([1]; A431, Reference Example Compound 55:other compound 1:36 (only ratio calculated), at ED50) turn out when `Cc1cc(Nc2ncnc3ccc(NC4=NC(C)(C)CO4)cc23)ccc1Oc1ccn2ncnc2c1` [ARRY380] was run?
Answer: 0.34

Question: And the “Comprehensive Evaluation” value ([1]; A431)?
Answer: Synergism (0.3-0.7)

Question: Which results are given for `COc1cc2ncnc(Nc3ccc(F)c(Cl)c3)c2cc1OCCCN1CCOCC1` [Gefitinib, gefitinib]?
Answer: CI ([1]; A431, Reference Example Compound 55:other compound 1:5, at ED50): 0.33; CI ([1]; A431, Reference Example Compound 55:other compound 1:15, at ED50): 0.32; Comprehensive Evaluation ([1]; A431): Synergism (0.3-0.7)

Question: What does the source list for `Cc1ccc(NC(=O)c2ccc(CN3CCN(C)CC3)cc2)cc1Nc1nccc(-c2cccnc2)n1` [Imatinib, imatinib]?
Answer: CI [1]: 0.31 and 0.35; Comprehensive Evaluation ([1]; A549): Synergism (0.3-0.7)

Question: `C[C@@H](Oc1cc(-c2cnn(C3CCNCC3)c2)cnc1N)c1c(Cl)ccc(F)c1Cl` [Crizotinib, crizotinib] was tested. Which CI ([1]; MM.1S, Reference Example Compound 55:other compound 1:37, at ED50) did it give?
Answer: 0.87

Question: What about the CI ([1]; MM.1S, Reference Example Compound 55:other compound 1:111, at ED50) of the same molecule?
Answer: 0.74

Question: What about the “Comprehensive Evaluation” value ([1]; MM.1S) of the same molecule?
Answer: Slight

Question: Which results are given for `C=CC(=O)Nc1cc(Nc2nccc(-c3cn(C)c4ccccc34)n2)c(OC)cc1N(C)CCN(C)C` [Osimertinib, osimertinib]?
Answer: CI ([1]; NCI-H1975, Reference Example Compound 55:other compound 1:0.01, at ED50): 0.96; CI ([1]; NCI-H1975, Reference Example Compound 55:other compound 1:0.03, at ED50): 0.99; Comprehensive Evaluation ([1]; NCI-H1975): Additive (0.9-1.10)

Question: How did the CI ([1]; HCT116, Reference Example Compound 55:other compound 1:300, at ED50) turn out when `Cc1nc(Nc2ncc(C(=O)Nc3c(C)cccc3Cl)s2)cc(N2CCN(CCO)CC2)n1` [Dasatinib, dasatinib] was run?
Answer: 0.83

Question: And the CI ([1]; HCT116, Reference Example Compound 55:other compound 1:900, at ED50)?
Answer: 0.96

Question: And the “Comprehensive Evaluation” value ([1]; HCT116)?
Answer: Additive (0.9-1.10)

Question: Which results are given for `CCc1cc2c(cc1N1CCC(N3CCOCC3)CC1)C(C)(C)c1[nH]c3cc(C#N)ccc3c1C2=O` [Alectinib, alectinib]?
Answer: CI ([1]; MM.1S, Reference Example Compound 55:other compound 1:3000, at ED50): 0.58; CI ([1]; MM.1S, Reference Example Compound 55:other compound 1:9000, at ED50): 0.59; Comprehensive Evaluation ([1]; MM.1S): Synergism (0.3-0.7)
